From paper PMC9578396, “Intrinsic Antibacterial Activity of Xeruborbactam In Vitro: Assessing Spectrum and Mode of Action” (Antimicrobial Agents and Chemotherapy, 2022)
Converted amounts (≈) assume the structure as drawn. “And” between values parts separate entries of the source, which are not always exact repeats. Equal values may be shown once. Read-outs that look alike come from different tables or passages of the source.

Columns and labels:
Format in all cases: cell-based
Staphylococcus aureus = test: MIC, Staphylococcus aureus (MSSA, MRSA)
From the text: Bacterial isolates were subjected to broth microdilution susceptibility testing, performed according to Clinical and Laboratory Standards Institute (CLSI) methods ([46]), using panels prepared in-house. Meropenem was purchased from Sandoz, and all other antibiotics were from Sigma-Aldrich. Xeruborbactam was synthesized at Qpex Biopharma, San Diego, CA. Avibactam was purchased from eNovation Chemicals LLC, Bridgewater, NJ, USA; zidebactam was from MedKoo Biosciences, Inc., Morrisville, NC, and nacubactam was from Advanced ChemBlocks, Hayward, CA. Durlobactam was synthesized at Acme Bioscience, Palo Alto, CA, USA.

Acinetobacter baumannii = test: Broth microdilution MIC (CLSI), Acinetobacter baumannii; conditions: Acinetobacter baumannii
In short: (§1)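 Test organisms were KPC-producing clinical isolates (some enriched for porin mutations), matched isolates that lost KPC plasmids, and engineered porin/efflux mutant strains. Susceptibility was measured by broth microdilution following CLSI methods, using panels prepared in-house.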

Pseudomonas aeruginosa = test: Broth microdilution MIC (CLSI), Pseudomonas aeruginosa
In short: as §1

Escherichia coli = test: Broth microdilution MIC (CLSI), Escherichia coli; conditions: Escherichia coli
In short: as §1

With `C[C@@H](O)[C@H]1C(=O)N2C(C(=O)O)=C(S[C@@H]3CN[C@H](C(=O)N(C)C)C3)[C@H](C)[C@H]12` [Meropenem] as the molecule, how does the MIC (Staphylococcus aureus; Staphylococcus aureus, ATCC 29213 / MSSA, ATCC 29213, MSSA, read-out: MIC) read?
The MIC was 0.06 µg/mL (≈ 0.156 µM).

What about the MIC (Staphylococcus aureus; Staphylococcus aureus, MRSA, sa001, MRSA, read-out: MIC) of the same molecule?
The MIC was 16 µg/mL (≈ 41.7 µM).

And the MIC (Staphylococcus aureus; Staphylococcus aureus, MRSA, sa010, MRSA, read-out: MIC)?
Its MIC is 32 µg/mL (≈ 83.4 µM).

And the MIC (Staphylococcus aureus; Staphylococcus aureus, MRSA, sa013, MRSA, read-out: MIC)?
The MIC was 16 µg/mL (≈ 41.7 µM).

And the MIC (Staphylococcus aureus; Staphylococcus aureus, MRSA, sa014, MRSA, read-out: MIC)?
Its MIC is 8 µg/mL (≈ 20.9 µM).

What about the MIC (Staphylococcus aureus; Staphylococcus aureus, MRSA, sa148, MRSA, read-out: MIC) of the same molecule?
The MIC was 32 µg/mL (≈ 83.4 µM).

And the MIC (Staphylococcus aureus; Staphylococcus aureus, MRSA, sa150, MRSA, read-out: MIC)?
Its MIC is 32 µg/mL (≈ 83.4 µM).

What about the MIC (Staphylococcus aureus; Staphylococcus aureus, MRSA, sa151, MRSA, read-out: MIC) of the same molecule?
Its MIC is 32 µg/mL (≈ 83.4 µM).

And the MIC (Staphylococcus aureus; Staphylococcus aureus, MRSA, sa152, MRSA, read-out: MIC)?
Its MIC is 4 µg/mL (≈ 10.4 µM).

What about the MIC (Staphylococcus aureus; Staphylococcus aureus, MRSA, sa153, MRSA, read-out: MIC) of the same molecule?
The MIC was 32 µg/mL (≈ 83.4 µM).

What about the MIC (Staphylococcus aureus; Staphylococcus aureus, MRSA, sa278, MRSA, read-out: MIC) of the same molecule?
The MIC was 32 µg/mL (≈ 83.4 µM).

And the MIC (Staphylococcus aureus; Staphylococcus aureus, MRSA, sa279, MRSA, read-out: MIC)?
The MIC was 4 µg/mL (≈ 10.4 µM).

And the MIC (Staphylococcus aureus; Staphylococcus aureus, MRSA, sa280, MRSA, read-out: MIC)?
Its MIC is 4 µg/mL (≈ 10.4 µM).

And the MIC (Staphylococcus aureus; Staphylococcus aureus, MRSA, sa281, MRSA, read-out: MIC)?
The MIC was 32 µg/mL (≈ 83.4 µM).

And the MIC (Staphylococcus aureus; Staphylococcus aureus, MSSA)?
The MIC was 0.125 µg/mL (≈ 0.326 µM).

What about the MIC (Staphylococcus aureus; Staphylococcus aureus, MSSA, sa007, MSSA, read-out: MIC) of the same molecule?
The MIC was 0.25 µg/mL (≈ 0.652 µM).

What about the MIC (Staphylococcus aureus; Staphylococcus aureus, MSSA, sa015, MSSA, read-out: MIC) of the same molecule?
Its MIC is 0.25 µg/mL (≈ 0.652 µM).

What about the MIC (Staphylococcus aureus; sa002, MSSA) of the same molecule?
Its MIC is 0.125 µg/mL (≈ 0.326 µM).

What about the MIC (Staphylococcus aureus; sa003, MSSA) of the same molecule?
Its MIC is 0.125 µg/mL (≈ 0.326 µM).

What about the MIC (Staphylococcus aureus; sa004, MSSA) of the same molecule?
The MIC was 0.125 µg/mL (≈ 0.326 µM).

What about the MIC (Staphylococcus aureus; sa005, MSSA) of the same molecule?
Its MIC is 0.125 µg/mL (≈ 0.326 µM).

What about the MIC (Staphylococcus aureus; sa006, MSSA) of the same molecule?
The MIC was 0.125 µg/mL (≈ 0.326 µM).

And the MIC (Staphylococcus aureus; sa008, MSSA)?
Its MIC is 0.125 µg/mL (≈ 0.326 µM).

What about the MIC (Staphylococcus aureus; sa009, MSSA) of the same molecule?
The MIC was 0.125 µg/mL (≈ 0.326 µM).

And the MIC (Staphylococcus aureus; sa012, MSSA)?
The MIC was 0.125 µg/mL (≈ 0.326 µM).

What about the MIC (Acinetobacter baumannii; ATCC17978) of the same molecule?
The MIC was 0.25 µg/mL and 0.66 µM.

And the MIC (Acinetobacter baumannii; strain ACM1013, ΔadeIJK)?
Its MIC is 0.125 µg/mL.

What about the MIC (Acinetobacter baumannii; strain ACM1014, ΔadeABC) of the same molecule?
Its MIC is 0.125 µg/mL.

What about the MIC (Acinetobacter baumannii; strain ACM1015, ΔadeIJK ΔadeABC) of the same molecule?
The MIC was 0.06 µg/mL.

And the MIC (Acinetobacter baumannii; strain ACM1027, adeN (AdeIJK overexpression))?
Its MIC is 1 µg/mL.

And the MIC (Acinetobacter baumannii; strain ACM1030, adeS (AdeABC overexpression))?
The MIC was 0.5 µg/mL.

What about the MIC (Pseudomonas aeruginosa; PAM1154 (oprM::Hg), xeruborbactam 0 µg/ml) of the same molecule?
The MIC was 0.5 µg/mL.

What about the MIC (Pseudomonas aeruginosa; Pseudomonas aeruginosa) of the same molecule?
Its MIC is 0.25 µg/mL.

And the MIC (Pseudomonas aeruginosa; Pseudomonas aeruginosa, PAO1)?
The MIC was 0.06 µg/mL and 0.16 µM.

And the MIC (Pseudomonas aeruginosa; Pseudomonas aeruginosa, strain PAM1032, nalB (MexAB-OprM overexpression))?
Its MIC is 1 µg/mL.

What about the MIC (Pseudomonas aeruginosa; Pseudomonas aeruginosa, strain PAM1033, nfxB (MexCD-OprJ overexpression)) of the same molecule?
The MIC was 0.25 µg/mL.

What about the MIC (Pseudomonas aeruginosa; Pseudomonas aeruginosa, strain PAM1034, nfxC (MexEF-OprN overexpression)) of the same molecule?
Its MIC is 0.5 µg/mL.

What about the MIC (Pseudomonas aeruginosa; Pseudomonas aeruginosa, strain PAM1106, mexA::Tet) of the same molecule?
The MIC was 0.06 µg/mL.

And the MIC (Pseudomonas aeruginosa; Pseudomonas aeruginosa, strain PAM1154, oprM::Hg)?
The MIC was 0.06 µg/mL.

What about the MIC (Escherichia coli) of the same molecule?
Its MIC is 0.03 µg/mL.

What about the MIC (Escherichia coli; MG1655) of the same molecule?
Its MIC is 0.03 µg/mL and 0.08 µM.

What about the MIC (Escherichia coli; strain ECM6001, ΔacrB) of the same molecule?
The MIC was 0.03 µg/mL.

What about the MIC (Escherichia coli; strain ECM6502, marR (AcrAB overexpression)) of the same molecule?
The MIC was 0.06 µg/mL.
